Data as given in the supplement of paper PMC10307832.

Compound: NC(=O)[C@@H](CCC(F)(F)F)N(Cc1ccc(-c2ncon2)cc1F)S(=O)(=O)c1ccc(Cl)cc1 [Avagacestat] + COc1cc2c(Oc3ccc(NC(=O)C4(C(=O)Nc5ccc(F)cc5)CC4)cc3F)ccnc2cc1OCCCN1CCOCC1 [Foretinib] (partner 0.25 µM)
Assay: relative viability (nuclei count vs DMSO), 5 days (fraction); higher = more cells survive
How it was run: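 Dosing by pin tool came one day after lung cancer cell lines were seeded in 1536-well plates, using either one drug or a fixed anchor-drug dose plus five library-drug doses (not always all listed) in √10 steps. After 5 days, nuclei were counted on 4× images. Relative viability is treated-well nuclei count divided by vehicle-well nuclei count, and values are medians of duplicate plates.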

Cell Line	relative viability (first compound 0.08 µM)	relative viability (first compound 0.253 µM)	relative viability (first compound 0.8 µM)	relative viability (first compound 2.53 µM)	relative viability (first compound 8 µM)
LOU-NH91	0.925	0.916	0.974	0.886	0.893
HARA	1.1	1.39	0.863	0.867	0.77
HCC-827	1.08	1.12	1.15	1	1.03
NCI-H1703	0.315	0.318	0.384	0.338	0.308
NCI-H2405	1.04	1.03	0.998	0.938	0.927
PC-3 [JPC-3]	1.19	1.09	1.15	1.02	1.01
NCI-H2085	1.25	1.09	1.06	1.11	0.911
201T	1.18	1.45	1.06	0.944	1.1
NCI-H1975	1.1	1.16	0.988	1.02	1.01
NCI-H2023	0.857	0.892	1	0.847	0.65
BEN	0.692	0.694	0.725	0.74	0.62
RERF-LC-KJ	0.987	1.07	0.993	0.859	0.842
SK-MES-1	0.92	0.808	1.03	0.666	0.619
PC-14	1.1	1.08	1.1	0.956	0.817
NCI-H1437	1.42	1.41	1.27	1.23	1.11
NCI-H1993	0.924	0.885	0.973	0.763	0.787
LK-2	1.72	1.7	1.07	1.07	0.93
NCI-H838	1.1	1.35	1.07	1.01	0.944
IA-LM	1.76	1.68	1.71	1.37	1.4
NCI-H1734	0.932	0.934	0.839	0.771	0.835
NCI-H1944	0.895	1.06	0.795	0.644	0.779
HCC-366	1.01	1.05	0.944	1.01	1.04
LXF-289	1.04	0.957	0.992	0.982	0.893
NCI-H661	1.04	1.17	1.07	0.974	1.08
A-427	1.37	1.18	1.12	1.11	1.08

Cell Line	relative viability (first compound 0.08 µM)	relative viability (first compound 0.253 µM)	relative viability (first compound 0.8 µM)	relative viability (first compound 2.53 µM)	relative viability (first compound 8 µM)
COR-L 105	1.17	1.25	1.36	0.927	0.698
NCI-H520	0.755	0.753	0.731	0.657	0.629
NCI-H2228	1.07	1.1	0.941	0.773	0.793
EBC-1	0.114	0.113	0.123	0.11	0.107
HCC-78	0.588	0.523	0.542	0.492	0.54
NCI-H596	1	0.831	0.85	0.809	0.84
UMC-11	1.19	1.15	1.26	1.13	1.06
NCI-H441	0.975	1.29	1.04	1.14	0.956
EKVX	0.859	0.742	1.08	0.798	0.795
NCI-H1755	0.951	0.921	1	0.847	0.849
SW 900	1.38	1.32	0.967	0.612	1.2
ABC-1	1.16	1.06	1.15	1	1.06
NCI-H647	1.38	1.41	1.27	1.21	1.11
EPLC-272H	0.72	0.662	0.825	0.602	0.661
NCI-H460	1.02	1.4	1.05	0.827	0.885
NCI-H1915	1.21	1.26	1.21	1.06	1.03
NCI-H2009	1.31	1.39	1.24	1.24	1.21
NCI-H650	1.05	1.08	1.11	1.08	1.11
NCI-H1793	0.686	0.693	0.854	0.473	0.619
NCI-H1650	1.47	1.11	1.06	1.04	1.09
NCI-H1395	0.981	0.946	0.903	0.899	0.846
NCI-H1355	1.11	1.24	0.961	0.846	0.785
HOP-62	1.29	1.2	1.17	0.948	0.996
ChaGo-K-1	0.935	1	0.856	0.825	0.786
NCI-H23	1.11	1.17	0.925	1.14	0.93

Cell Line	relative viability (first compound 0.08 µM)	relative viability (first compound 0.253 µM)	relative viability (first compound 0.8 µM)	relative viability (first compound 2.53 µM)	relative viability (first compound 8 µM)
NCI-H2170	1.02	1.12	0.988	0.899	1.01
EMC-BAC-2	1.06	1.09	1.06	0.904	0.968
A549	1.01	1.15	1.01	1.01	0.878
NCI-H2347	1.22	1.07	0.931	0.842	0.977
SW 1573	0.917	0.866	0.88	0.867	1.02
NCI-H358	0.7	0.866	0.737	0.598	0.665
LCLC-103H	0.803	0.849	0.757	0.56	0.784
HCC-15	1.14	1.16	1.15	0.958	1.01
NCI-H3122	0.945	1	0.992	0.964	0.991
NCI-H1299	1.07	1.12	1.15	1.09	1.12
CAL-12T	1.35	1.25	1.24	1.02	1.16
COR-L23	1.12	1.28	1.1	0.901	0.952
NCI-H1563	1.1	0.999	0.879	0.803	0.842
NCI-H2087	1.11	1.39	1.09	1.09	1.23
LC-2-ad	1	1.03	0.914	0.854	0.868
H3255	0.857	0.913	0.934	0.891	0.949
NCI-H727	0.947	0.932	0.803	0.783	0.881
LCLC-97TM1	0.977	0.916	0.894	0.92	0.944
LU99A	0.807	0.875	0.925	0.837	0.786
NCI-H1651	0.899	0.884	0.895	0.847	0.596
NCI-H322M	0.969	0.935	1.04	0.728	0.774
SK-LU-1	0.993	0.879	0.852	0.575	0.66
Calu-6	1.12	0.949	0.979	0.905	0.845
NCI-H1666	1.32	1.15	1.16	1.07	1.07
NCI-H2126	1.53	1.21	1.34	1.06	1.02
